Data reported in patent publication US20070082953A1, “Use of l-dopa, derivatives thereof and medicaments comprising said compounds for the prophylaxis of psychotic diseases” (priority 2003, published 2007).

Tested on: patients with acute schizophrenia
Test: Relapse prophylaxis in schizophrenia patients withdrawn from fluphenazine maintenance therapy
Assay type: in vivo
Conditions: ten clinically stable patients taken off fluphenazine; L-dopa or L-dopa combination preparation given 2 months prior to withdrawal and during the entire withdrawal phase; about 8 of 10 relapses expected within 12 months per literature
Description: Ten patients with acute schizophrenia, who had accordingly received maintenance therapy with fluphenazine for more than one year and were clinically stable, were successively taken off this drug. According to clinical experience (see Gitlin M., Nuechterlein K., Subotnik K. L. et al., Am. J. Psychiatry (2001) 158(11), pp. 1835-42), about 8 of the 10 patients would be expected to suffer a relapse within the following 12 months. Our patients were treated with L-dopa or a combination preparation containing L-dopa for 2 months prior to withdrawal and during the entire withdrawal phase. In these patients, a relapse occurred in only 2 of 10 cases.

For `N[C@@H](Cc1ccc(O)c(O)c1)C(=O)O` [L-dopa, 3,4-dihydroxy-L-phenylalanine], the “relapse occurred (cases with relapse out of patients treated)” value was 2 of 10.
